One series concerns rIGFBP-5. In words: Proteolytic activity of PAPP-A2 against IGFBP-5, Western blotting using anti-c-myc. Conditions: absence of inhibitors; medium from 293T cells transfected with pPA2. In kind it is biochemical, human. For orientation: Immunoblotting shows a protein as a band on a membrane.
The next series deals with IGFBP-3. In words: Activity of PAPP-A2 against IGFBPs, ligand blotting using radiolabeled IGF-II. In kind it is biochemical. The settings on record: medium from 293T cells transfected with pPA2. On the procedure: (§1) Ligand blotting (Conover et al., 1993, J Clin Invest 91, 1129-37) with radiolabeled IGF-II (Bachem) was used to assay for activity against IGFBP-1 (from HepG2 conditioned medium), rIGFBP-2 (GroPep), rIGFBP-3 (gift of D. Powell), rIGFBP-4 (Austral), rIGFBP-5 (gift of D. Andress), and rIGFBP-6 (Austral). […] IGFBP-3 was partially degraded (FIG. 10). This cleavage was independent of the presence of IGF. Experiments were carried out with media from cells transfected with pPA2 or empty vector.
(§2) Medium from 293T cells transfected with empty vector (−), or cDNA encoding PAPP-A2 (pPA2) (+) was incubated with each of the six IGFBPs (BP1-BP6), and the activity was assessed by ligand blotting using radiolabeled IGF-II.

The subject of another series is IGFBP-5. The series is described as above. In kind it is biochemical. The settings on record: medium from 293T cells transfected with pPA2. On the procedure:
as §1, §2

In a further series the target is PAPP-A2 (Homo sapiens, UniProt Q9BXP8).
Sequence of PAPP-A2 (Q9BXP8 234-1791 limits assumed): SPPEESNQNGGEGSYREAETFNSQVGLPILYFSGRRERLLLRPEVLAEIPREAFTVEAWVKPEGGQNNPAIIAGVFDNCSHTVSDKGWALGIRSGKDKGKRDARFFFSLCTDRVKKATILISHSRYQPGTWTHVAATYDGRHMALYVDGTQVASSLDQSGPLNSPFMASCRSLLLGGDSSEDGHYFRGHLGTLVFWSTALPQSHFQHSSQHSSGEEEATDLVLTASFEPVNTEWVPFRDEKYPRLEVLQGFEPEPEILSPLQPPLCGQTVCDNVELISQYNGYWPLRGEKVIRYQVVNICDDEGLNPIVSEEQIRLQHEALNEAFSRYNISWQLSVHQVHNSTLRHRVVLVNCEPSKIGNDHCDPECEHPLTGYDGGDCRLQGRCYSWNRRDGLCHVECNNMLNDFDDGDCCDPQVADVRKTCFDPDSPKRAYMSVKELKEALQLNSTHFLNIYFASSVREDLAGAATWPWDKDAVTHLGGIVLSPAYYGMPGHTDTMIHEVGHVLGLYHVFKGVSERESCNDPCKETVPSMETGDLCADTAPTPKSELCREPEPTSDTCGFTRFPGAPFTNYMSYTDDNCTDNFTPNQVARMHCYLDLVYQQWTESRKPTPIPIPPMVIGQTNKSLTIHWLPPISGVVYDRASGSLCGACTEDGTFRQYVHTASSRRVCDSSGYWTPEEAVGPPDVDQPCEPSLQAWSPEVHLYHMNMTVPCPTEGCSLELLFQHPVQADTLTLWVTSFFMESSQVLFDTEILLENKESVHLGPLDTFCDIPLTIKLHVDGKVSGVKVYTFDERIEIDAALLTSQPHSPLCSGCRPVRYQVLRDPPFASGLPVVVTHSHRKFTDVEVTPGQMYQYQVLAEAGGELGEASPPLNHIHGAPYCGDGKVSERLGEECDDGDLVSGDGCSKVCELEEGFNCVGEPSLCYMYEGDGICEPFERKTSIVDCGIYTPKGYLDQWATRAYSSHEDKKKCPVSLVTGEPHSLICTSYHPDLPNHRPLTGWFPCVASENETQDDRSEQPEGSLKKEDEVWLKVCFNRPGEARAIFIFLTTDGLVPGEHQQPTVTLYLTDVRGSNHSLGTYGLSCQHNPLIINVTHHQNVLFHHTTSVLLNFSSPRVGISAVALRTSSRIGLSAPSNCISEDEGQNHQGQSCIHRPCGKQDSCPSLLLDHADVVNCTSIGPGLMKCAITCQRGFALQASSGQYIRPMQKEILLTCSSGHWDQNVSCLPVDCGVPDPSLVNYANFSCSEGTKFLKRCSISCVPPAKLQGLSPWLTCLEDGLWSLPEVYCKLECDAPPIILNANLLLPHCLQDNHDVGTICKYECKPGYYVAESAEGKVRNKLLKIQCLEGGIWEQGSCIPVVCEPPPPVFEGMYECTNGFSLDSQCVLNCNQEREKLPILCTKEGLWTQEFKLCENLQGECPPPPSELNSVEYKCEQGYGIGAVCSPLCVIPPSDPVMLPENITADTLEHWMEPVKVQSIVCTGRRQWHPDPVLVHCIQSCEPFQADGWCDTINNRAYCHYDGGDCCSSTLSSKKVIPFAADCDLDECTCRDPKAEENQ

For “PAPP-A2: recombinant wild-type PAPP-A2 metalloproteinase in medium from 293T cells transfected with cDNA (pPA2)”, the “Degradation of rIGFBP-5” value in the series with rIGFBP-5 is on record as “degraded all rIGFBP-5”. Further, the “Degradation of IGFBP-3” value with IGFBP-3 is “Partial degradation”. Moreover, the “Cleavage of IGFBP-5” value with IGFBP-5 is recorded as “Complete cleavage”.

For the molecule `c1cnc2c(c1)ccc1cccnc12` [phenanthroline], the “PAPP-A2 activity (degradation of rIGFBP-5)” value at PAPP-A2 is listed as “abolished”.

On to `O=c1oc(Cl)c(Cl)c2ccccc12` [3,4-DCI], for which the “PAPP-A2 activity (degradation of rIGFBP-5)” value on PAPP-A2 is “not affected”.
